This note sets out measurements from patent publication US20240109900A1, “AZABICYCLIC SHP2 INHIBITORS” (IRBM S.P.A., priority 2021, published 2024).

Where only a bound is given, the exact number is not on record here.

The target in experiment [1] is SHP-2 enzyme (Met1-Leu525) (Homo sapiens (Human), UniProt Q06124). Briefly: SHP2 inhibition enzymatic assay. Type of experiment: biochemical. As to conditions: 0.5 nM SHP-2 activated by 500 nM IRS1 peptide, 75 μM DiFMUP substrate; read-out: SHP2wt-IC50. Put shortly:
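SHP-2 (Met1-Leu525), 0.5 nM, activated with 500 nM IRS1 bis-phosphopeptide, preincubated 30 min with compounds in HEPES pH 7.2 buffer with 5 mM DTT. 75 μM DiFMUP added for 30 min at room temperature, stopped with bpV; fluorescence read. IC50 from four-parameter logistic fit of % inhibition.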

Experiment [2] relates to ERK phosphorylation in KYSE-520 cells. Description: Phospho-ERK cellular assay. Type of experiment: cell-based. As to conditions: Homo sapiens, KYSE-520, 2 h, KYSE-520 cells, 2 h at 37° C., phospho-ERK1/2 (Thr202/Tyr204) TR-FRET; read-out: PERK IC50. The gist of the method: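 TR-FRET read-out of ERK1/2 Thr202/Tyr204 phosphorylation was taken after overnight antibody incubation at room temperature. Before that, KYSE-520 cells were treated 2 h at 37 °C with compound dilutions and lysed 30 min. Percent inhibition relative to vehicle and cell-free wells was fitted four-parametrically to give IC50.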

Sequence of SHP-2 enzyme (Met1-Leu525) (Q06124 1-525): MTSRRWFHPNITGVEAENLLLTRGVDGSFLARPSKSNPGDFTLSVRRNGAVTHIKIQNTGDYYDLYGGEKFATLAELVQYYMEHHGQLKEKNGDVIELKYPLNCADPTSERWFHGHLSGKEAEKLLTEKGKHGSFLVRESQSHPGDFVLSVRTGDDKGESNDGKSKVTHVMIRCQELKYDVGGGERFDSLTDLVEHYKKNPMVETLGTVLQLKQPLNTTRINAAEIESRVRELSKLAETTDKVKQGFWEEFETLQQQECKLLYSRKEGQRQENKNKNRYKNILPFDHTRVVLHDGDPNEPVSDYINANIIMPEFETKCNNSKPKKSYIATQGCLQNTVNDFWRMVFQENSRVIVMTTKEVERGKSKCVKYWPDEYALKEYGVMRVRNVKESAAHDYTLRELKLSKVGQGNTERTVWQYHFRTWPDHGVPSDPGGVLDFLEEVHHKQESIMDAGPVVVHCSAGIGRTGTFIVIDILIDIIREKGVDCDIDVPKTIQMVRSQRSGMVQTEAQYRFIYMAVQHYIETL

`Cn1cc2c(C(F)F)c(-c3n[nH]c4nc(N5CC[C@@H]6[C@H](C5)[C@@]6(CN)c5ccccc5F)cnc34)ccc2n1` [Example 202, ((1S,6R,7R)-3-(3-(4-(difluoromethyl)-2-methyl-2H-indazol-5-yl)-1H-pyrazolo[3,4-b]pyrazin-6-yl)-7-(2-fluorophenyl)-3-azabicyclo[4.1.0]heptan-7-yl)methanamine]: the IC50 was less than 500 nM in experiment [1] and less than 1000 nM in experiment [2].

Turning to `NCC1(c2ncccn2)C2CCN(c3cnc4c(-c5cccc(Cl)c5Cl)n[nH]c4n3)CC21` (centres unmarked) [Example 83, (3-(3-(2,3-dichlorophenyl)-1H-pyrazolo[3,4-b]pyrazin-6-yl)-7-(pyrimidin-2-yl)-3-azabicyclo [4.1.0]heptan-7-yl)methanamine], the IC50 in experiment [1] is less than 500 nM; in experiment [2] it was less than 1000 nM.

For `COc1ccc2cc(-c3n[nH]c4nc(N5CC[C@@H]6[C@H](C5)[C@@]6(CN)c5cc(C)on5)cnc34)ccc2n1` [Example 149, ((1S,6R,7S)-3-(3-(2-methoxyquinolin-6-yl)-1H-pyrazolo[3,4-b]pyrazin-6-yl)-7-(5-methylisoxazol-3-yl)-3-azabicyclo[4.1.0]heptan-7-yl)methanamine], the 50% inhibitory concentration (IC50) in experiment [1] was less than 500 nM; in experiment [2], less than 1000 nM.

`Cn1cc2c(Cl)c(-c3c[nH]c4nc(N5CC[C@@H]6[C@H](C5)[C@@]6(CN)c5ccccc5F)n(C)c(=O)c34)ccc2n1` [Example 378, 2-((1S,6R,7R)-7-(aminomethyl)-7-(2-fluorophenyl)-3-azabicyclo[4.1.0]heptan-3-yl)-5-(4-chloro-2-methyl-2H-indazol-5-yl)-3-methyl-3,7-dihydro-4H-pyrrolo[2,3-d]pyrimidin-4-one]: the IC50 in experiment [1] was less than 500 nM; in experiment [2] it was less than 1000 nM.

On to `Cc1c(-c2ccc3nc(N4CC[C@@H]5[C@H](C4)[C@@]5(CN)c4ccccc4F)cnc3n2)ccc2nn(C)cc12` [Example 425, ((1S,6R,7R)-3-(6-(2,4-dimethyl-2H-indazol-5-yl)pyrido[2,3-b]pyrazin-2-yl)-7-(2-fluorophenyl)-3-azabicyclo[4.1.0]heptan-7-yl)methanamine], for which the IC50 in experiment [1] is less than 500 nM; in experiment [2], less than 1000 nM.

On to `Cc1c(-c2n[nH]c3nc(N4CC[C@@H]5[C@H](C4)[C@@]5(CN)c4ncccc4F)cnc23)ccc2nn(C)cc12` [Example 179, ((1S,6R,7S)-3-(3-(2,4-dimethyl-2H-indazol-5-yl)-1H-pyrazolo[3,4-b]pyrazin-6-yl)-7-(3-fluoropyridin-2-yl)-3-azabicyclo[4.1.0]heptan-7-yl)methanamine], for which the IC50 in experiment [1] is less than 500 nM; in experiment [2], less than 1000 nM.

Take `Cc1cc([C@@]2(CN)[C@@H]3CCN(c4cnc5c(-c6cncc7ncccc67)n[nH]c5n4)C[C@@H]32)no1` [Example 148, ((1S,6R,7S)-3-(3-(1,7-naphthyridin-5-yl)-1H-pyrazolo[3,4-b]pyrazin-6-yl)-7-(5-methylisoxazol-3-yl)-3-azabicyclo[4.1.0]heptan-7-yl)methanamine]: the IC50 is less than 500 nM in experiment [1] and less than 1000 nM in experiment [2].

Take `Cc1nc(N2CCC3C(C2)C3(CN)c2ccsc2)c(CO)nc1-c1cccc(Cl)c1Cl` (centres unmarked) [Example 1, [3-[7-(aminomethyl)-7-(thiophen-3-yl)-3-azabicyclo[4.1.0]heptan-3-yl]-6-(2,3-dichlorophenyl)-5-methylpyrazin-2-yl]methanol]: the results for the half-inhibitory concentration (IC50) in experiment [1] and in experiment [2] were less than 500 nM and greater than 5000 nM, respectively.

For `NC[C@]1(c2ccccc2F)[C@@H]2CCN(c3cnc(Sc4ccnc(-n5cccn5)c4Cl)cn3)C[C@@H]21` [Example 388, ((1S,6R,7R)-3-(5-((3-chloro-2-(1H-pyrazol-1-yl)pyridin-4-yl)thio)pyrazin-2-yl)-7-(2-fluorophenyl)-3-azabicyclo[4.1.0]heptan-7-yl)methanamine], the figures for the 50% inhibitory concentration (IC50) in experiment [1] and in experiment [2] were less than 500 nM and less than 1000 nM, respectively.

Consider `Cc1ccc(-c2n[nH]c3nc(N4CC[C@@H]5[C@H](C4)[C@@]5(CN)c4ccccc4F)cnc23)c2ccnn12` [Example 161, ((1S,6R,7R)-7-(2-fluorophenyl)-3-(3-(7-methylpyrazolo[1,5-a]pyridin-4-yl)-1H-pyrazolo[3,4-b]pyrazin-6-yl)-3-azabicyclo[4.1.0]heptan-7-yl)methanamine], for which the half-maximal inhibitory concentration (IC50) in experiment [1] was less than 500 nM; in experiment [2], less than 1000 nM.

As to `NC[C@]1(c2ccccc2F)[C@@H]2CCN(c3cnc4c(-c5ccc(C(=O)O)c6ccccc56)n[nH]c4n3)C[C@@H]21` [Example 257, 4-(6-((1S,6R,7R)-7-(aminomethyl)-7-(2-fluorophenyl)-3-azabicyclo[4.1.0]heptan-3-yl)-1H-pyrazolo[3,4-b]pyrazin-3-yl)-1-naphthoic acid], the half-inhibitory concentration (IC50) is less than 500 nM in experiment [1] and greater than 5000 nM in experiment [2].

Consider `Cc1cc(C2(CN)C3CCN(c4cnc5c(-c6ccc(F)c7ncccc67)n[nH]c5n4)CC32)no1` (centres unmarked) [Example 30, (3-(3-(8-fluoroquinolin-5-yl)-1H-pyrazolo[3,4-b]pyrazin-6-yl)-7-(5-methylisoxazol-3-yl)-3-azabicyclo[4.1.0]heptan-7-yl)methanamine], for which the results for the IC50 in experiment [1] and in experiment [2] were less than 500 nM and less than 1000 nM, respectively.

As to `NC[C@]1(c2ccccc2F)[C@@H]2CCN(c3cnc4c(-c5ccc(C(=O)NC6CC6)c6ncccc56)n[nH]c4n3)C[C@@H]21` [Example 279, 5-(6-((1S,6R,7R)-7-(aminomethyl)-7-(2-fluorophenyl)-3-azabicyclo[4.1.0]heptan-3-yl)-1H-pyrazolo[3,4-b]pyrazin-3-yl)-N-cyclopropylquinoline-8-carboxamide], the IC50 in experiment [1] is less than 500 nM; in experiment [2], less than 1000 nM.

In the case of `NC[C@]1(c2ccccc2F)[C@@H]2CCN(c3cnc4c(-c5ccc6c(c5)NC(=O)NC6)n[nH]c4n3)C[C@@H]21` [Example 372, 7-(6-((1S,6R,7R)-7-(aminomethyl)-7-(2-fluorophenyl)-3-azabicyclo[4.1.0]heptan-3-yl)-1H-pyrazolo[3,4-b]pyrazin-3-yl)-3,4-dihydroquinazolin-2(1H)-one], the IC50 in experiment [1] is less than 500 nM; in experiment [2], less than 1000 nM.

As for `Cc1nccc(Sc2cnc(N3CC[C@@H]4[C@H](C3)[C@@]4(CN)c3cc(F)ccc3F)cn2)c1F` [Example 424, ((1S,6R,7R)-7-(2,5-difluorophenyl)-3-(5-((3-fluoro-2-methylpyridin-4-yl)thio)pyrazin-2-yl)-3-azabicyclo[4.1.0]heptan-7-yl)methanamine], the half-inhibitory concentration (IC50) in experiment [1] was less than 500 nM; in experiment [2], less than 1000 nM.

As for `Cc1nn(C)c(C)c1-c1n[nH]c2nc(N3CC[C@@H]4[C@H](C3)[C@@]4(CN)c3ccccc3F)cnc12` [Example 371, ((1S,6R,7R)-7-(2-fluorophenyl)-3-(3-(1,3,5-trimethyl-1H-pyrazol-4-yl)-1H-pyrazolo[3,4-b]pyrazin-6-yl)-3-azabicyclo[4.1.0]heptan-7-yl)methanamine], the IC50 in experiment [1] is greater than 3000 nM; in experiment [2], greater than 5000 nM.

As for `Cc1csc([C@@]2(CN)[C@@H]3CN(c4cnc5nc(Sc6ccnc(-n7cccn7)c6Cl)ccc5n4)C[C@@H]32)n1` [Example 515, ((1R,5S,6r)-3-(6-((3-chloro-2-(1H-pyrazol-1-yl)pyridin-4-yl)thio)pyrido[2,3-b]pyrazin-2-yl)-6-(4-methylthiazol-2-yl)-3-azabicyclo[3.1.0]hexan-6-yl)methanamine], the half-inhibitory concentration (IC50) in experiment [1] is less than 500 nM; in experiment [2], less than 1000 nM.

In the case of `Cc1cc(C2(CN)C3CCN(c4cnc5c(-c6ccc7nn(C)cc7c6Cl)n[nH]c5n4)CC32)no1` (centres unmarked) [Example 24, (3-(3-(4-chloro-2-methyl-2H-indazol-5-yl)-1H-pyrazolo[3,4-b]pyrazin-6-yl)-7-(5-methylisoxazol-3-yl)-3-azabicyclo[4.1.0]heptan-7-yl)methanamine], the IC50 is less than 500 nM in experiment [1] and less than 1000 nM in experiment [2].

As for `Cn1cc2c(Cl)c(-c3n[nH]c4nc(N5C[C@@H]6[C@H](C5)[C@@]6(CN)c5ccccn5)cnc34)ccc2n1` [Example 491, ((1R,5S,6r)-3-(3-(4-chloro-2-methyl-2H-indazol-5-yl)-1H-pyrazolo[3,4-b]pyrazin-6-yl)-6-(pyridin-2-yl)-3-azabicyclo[3.1.0]hexan-6-yl)methanamine], the IC50 was less than 500 nM in experiment [1] and less than 1000 nM in experiment [2].

With `Cn1ccc2c(Cl)c(-c3n[nH]c4nc(N5CC[C@@H]6[C@H](C5)[C@@]6(CN)c5ccccc5F)cnc34)ccc2c1=O` [Example 336, 6-(6-((1S,6R,7R)-7-(aminomethyl)-7-(2-fluorophenyl)-3-azabicyclo[4.1.0]heptan-3-yl)-1H-pyrazolo[3,4-b]pyrazin-3-yl)-5-chloro-2-methylisoquinolin-1(2H)-one], the 50% inhibitory concentration (IC50) in experiment [1] is less than 500 nM; in experiment [2], less than 1000 nM.

Regarding `Cc1cc([C@@]2(CN)[C@@H]3CCN(c4cnc5c(-c6csc7ncccc67)n[nH]c5n4)C[C@@H]32)no1` [Example 113, ((1S,6R,7S)-7-(5-methylisoxazol-3-yl)-3-(3-(thieno[2,3-b]pyridin-3-yl)-1H-pyrazolo[3,4-b]pyrazin-6-yl)-3-azabicyclo[4.1.0]heptan-7-yl)methanamine], the IC50 in experiment [1] is less than 500 nM; in experiment [2], less than 1000 nM.

As for `COc1cnc2ccc(-c3n[nH]c4nc(N5CC[C@@H]6[C@H](C5)[C@@]6(CN)c5ccccc5F)cnc34)c(Cl)c2n1` [Example 119, ((1S,6R,7R)-3-(3-(5-chloro-3-methoxyquinoxalin-6-yl)-1H-pyrazolo[3,4-b]pyrazin-6-yl)-7-(2-fluorophenyl)-3-azabicyclo[4.1.0]heptan-7-yl)methanamine], the figures for the half-inhibitory concentration (IC50) in experiment [1] and in experiment [2] were less than 500 nM and less than 1000 nM, respectively.
